Source: paper PMC9851200, “Multiparameter phenotypic screening for endogenous TFEB and TFE3 translocation identifies novel chemical series modulating lysosome function” (Autophagy, 2022)
Read-outs that look alike come from different tables or passages of the source.

Assays:
Assay in all cases: biochemical
Type in all cases: binding
[1] = target: T1, cellular kinases of SH-SY5Y cells (Homo sapiens, UniProt Q8TCG2); conditions: 2µM; SH-SY5Y cells; labeling site ATP; peptide SEEPYGQLNPKWTK
T1 construct: endogenous in cells; host or cells: SH-SY5Y
From the text: (§1) As KINOMEscan is an in vitro assay, and as different cell types have variable kinase expression profiles we sought to determine the kinase binding profile in our SH-SY5Y TFEB-relocalization cell model. […] Bound kinases were pulled down and analyzed by mass spectrometry to determine the in situ kinase binding profile for each compound.

[2] = target: T2, cellular kinases of SH-SY5Y cells (Homo sapiens, UniProt Q15831); conditions: 2µM; SH-SY5Y cells; Labeling Site Lys2; DIKPGNLLLTTGGTLK; read-out: KiNativ in-cell binding, % Inhibition, STK11/LKB1
T2 construct: endogenous in cells; host or cells: SH-SY5Y
From the text: as §1

[3] = target: T3, cellular kinases of SH-SY5Y cells (Homo sapiens, UniProt Q86UX6); conditions: 2µM; SH-SY5Y cells; Labeling Site Lys2; DVKPDNILLDER; read-out: KiNativ in-cell binding, % Inhibition, STK32C/YANK3
T3 construct: endogenous in cells; host or cells: SH-SY5Y
From the text: as §1

[4] = target: cellular kinases of SH-SY5Y cells (Homo sapiens, UniProt Q13464); conditions: 2µM; SH-SY5Y cells; Labeling Site Other; KLQLELNQER; read-out: KiNativ in-cell binding, % Inhibition, ROCK1
From the text: as §1

[5] = target: cellular kinases of SH-SY5Y cells (Homo sapiens, UniProt Q8TBX8); conditions: 2µM, SH-SY5Y cells, Labeling Site ATP, read-out: KiNativ in-cell binding, % Inhibition, PIP4K2C
From the text: as §1

[6] = target: cellular kinases of SH-SY5Y cells (Homo sapiens, UniProt P27448); conditions: 2µM; SH-SY5Y cells; Labeling Site Lys1; EVAIKIIDKTQLNPTSLQK; read-out: KiNativ in-cell binding, % Inhibition, MARK3
From the text: as §1

[7] = target: T4, cellular kinases of SH-SY5Y cells (Homo sapiens, UniProt Q13418); conditions: 2µM, SH-SY5Y cells
T4 construct: endogenous in cells; host or cells: SH-SY5Y
From the text: as §1

[8] = target: T5, cellular kinases of SH-SY5Y cells (Homo sapiens, UniProt Q9Y2I7); conditions: 2µM; SH-SY5Y cells; Labeling Site ATP; GGKSGAAFYATEDDRFILK; read-out: KiNativ in-cell binding, % Inhibition, PIKFYVE
T5 construct: endogenous in cells; host or cells: SH-SY5Y
From the text: as §1

[9] = target: cellular kinases of SH-SY5Y cells (Homo sapiens, UniProt P68400); conditions: 2µM; SH-SY5Y cells; labeling site Protein Kinase Domain; peptide GGPNIITLADIVKDPVSR
From the text: as §1

[10] = target: cellular kinases of SH-SY5Y cells (Homo sapiens, UniProt Q96RR4); conditions: 2µM, SH-SY5Y cells
From the text: as §1

[11] = target: cellular kinases of SH-SY5Y cells (Homo sapiens, UniProt P43405)
From the text: as §1

[12] = target: cellular kinases of SH-SY5Y cells (Homo sapiens, UniProt Q13555); conditions: 2µM; SH-SY5Y cells; Labeling Site Lys1; TSTQEYAAKIINTK; read-out: KiNativ in-cell binding, % Inhibition, CaMK2g
From the text: as §1

[13] = target: T6, cellular kinases of SH-SY5Y cells (Homo sapiens, UniProt P46734); conditions: 2µM, SH-SY5Y cells
T6 sequence (P46734 1-347): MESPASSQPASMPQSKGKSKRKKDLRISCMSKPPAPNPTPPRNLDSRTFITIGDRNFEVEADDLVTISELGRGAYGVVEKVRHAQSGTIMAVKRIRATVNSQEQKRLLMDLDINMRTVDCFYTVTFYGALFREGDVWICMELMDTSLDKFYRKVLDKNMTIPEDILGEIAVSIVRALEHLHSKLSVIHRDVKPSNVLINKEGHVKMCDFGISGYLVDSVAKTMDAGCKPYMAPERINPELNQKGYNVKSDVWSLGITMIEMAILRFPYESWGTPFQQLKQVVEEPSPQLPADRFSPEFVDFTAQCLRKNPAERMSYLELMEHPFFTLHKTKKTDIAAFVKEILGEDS
From the text: as §1

[14] = target: cellular kinases of SH-SY5Y cells (Homo sapiens, UniProt O75716); conditions: 2µM; SH-SY5Y cells; Labeling Site Lys2; DLKPTNILLGDEGQPVLMDLGSMNQACIHVEGSR; read-out: KiNativ in-cell binding, % Inhibition, STK16
From the text: as §1

[15] = target: T7, cellular kinases of SH-SY5Y cells (Homo sapiens, UniProt Q96PY6); conditions: 2µM; SH-SY5Y cells; Labeling Site Lys2; DIKSQNIFLTK; read-out: KiNativ in-cell binding, % Inhibition, NEK1
T7 construct: endogenous in cells; host or cells: SH-SY5Y
From the text: as §1

[16] = target: cellular kinases of SH-SY5Y cells (Homo sapiens, UniProt P51812); conditions: 2µM; SH-SY5Y cells; Labeling Site Lys2; DLKPSNILYVDESGNPESIR; read-out: KiNativ in-cell binding, % Inhibition, RPS6KA3/RSK2 domain2
From the text: as §1

[17] = target: T8, cellular kinases of SH-SY5Y cells (Homo sapiens, UniProt P43403); conditions: 2µM; SH-SY5Y cells; Labeling Site Activation Loop; SAGKWPLK; read-out: KiNativ in-cell binding, % Inhibition, ZAP70
T8 construct: endogenous in cells; host or cells: SH-SY5Y
From the text: as §1

[18] = target: cellular kinases of SH-SY5Y cells (Homo sapiens, UniProt Q00534); conditions: 2µM; SH-SY5Y cells; labeling site Lys2; peptide DLKPQNILVTSSGQIK
From the text: as §1

Sequence of cellular kinases of SH-SY5Y cells (Homo sapiens, UniProt Q96RR4) (Q96RR4 whole entry): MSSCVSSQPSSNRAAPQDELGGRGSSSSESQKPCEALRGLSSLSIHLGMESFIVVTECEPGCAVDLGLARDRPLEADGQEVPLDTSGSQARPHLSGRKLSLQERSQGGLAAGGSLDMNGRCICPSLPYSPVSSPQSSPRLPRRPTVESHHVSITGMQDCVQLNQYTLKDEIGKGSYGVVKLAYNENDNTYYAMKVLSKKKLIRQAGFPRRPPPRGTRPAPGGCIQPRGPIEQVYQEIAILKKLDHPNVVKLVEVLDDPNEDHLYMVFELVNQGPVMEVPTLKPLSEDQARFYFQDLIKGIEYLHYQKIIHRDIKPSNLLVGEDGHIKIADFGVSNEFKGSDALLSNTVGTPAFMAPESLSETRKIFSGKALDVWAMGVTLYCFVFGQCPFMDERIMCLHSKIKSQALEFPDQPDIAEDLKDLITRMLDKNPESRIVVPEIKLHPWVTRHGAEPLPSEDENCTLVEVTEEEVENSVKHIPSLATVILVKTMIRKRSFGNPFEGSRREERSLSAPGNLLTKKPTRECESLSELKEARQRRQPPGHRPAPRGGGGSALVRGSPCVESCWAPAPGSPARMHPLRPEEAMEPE
T4 sequence (Q13418 whole entry): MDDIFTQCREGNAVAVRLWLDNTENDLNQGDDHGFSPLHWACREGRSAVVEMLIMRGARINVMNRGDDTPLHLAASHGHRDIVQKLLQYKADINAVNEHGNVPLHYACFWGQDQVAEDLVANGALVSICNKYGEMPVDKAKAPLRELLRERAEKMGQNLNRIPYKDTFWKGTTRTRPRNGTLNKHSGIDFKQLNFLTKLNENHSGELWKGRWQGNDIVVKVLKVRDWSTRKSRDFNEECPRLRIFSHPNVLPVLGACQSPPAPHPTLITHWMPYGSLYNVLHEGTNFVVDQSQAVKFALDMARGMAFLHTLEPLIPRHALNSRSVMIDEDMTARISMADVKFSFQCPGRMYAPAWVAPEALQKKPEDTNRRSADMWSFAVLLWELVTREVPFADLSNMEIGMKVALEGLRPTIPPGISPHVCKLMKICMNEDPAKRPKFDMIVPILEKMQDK
Sequence of cellular kinases of SH-SY5Y cells (Homo sapiens, UniProt Q8TBX8) (Q8TBX8 whole entry): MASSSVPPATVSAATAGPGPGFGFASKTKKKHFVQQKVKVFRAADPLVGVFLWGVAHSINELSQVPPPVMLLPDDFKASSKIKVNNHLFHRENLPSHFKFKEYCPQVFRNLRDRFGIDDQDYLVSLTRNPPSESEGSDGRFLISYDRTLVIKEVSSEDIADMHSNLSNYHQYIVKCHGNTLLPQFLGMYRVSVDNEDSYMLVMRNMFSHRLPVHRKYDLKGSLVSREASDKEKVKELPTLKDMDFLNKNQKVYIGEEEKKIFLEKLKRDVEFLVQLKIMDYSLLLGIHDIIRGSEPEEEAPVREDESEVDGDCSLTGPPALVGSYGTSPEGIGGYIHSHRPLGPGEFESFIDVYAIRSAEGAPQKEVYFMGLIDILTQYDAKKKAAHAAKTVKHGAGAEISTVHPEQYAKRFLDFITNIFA
Sequence of cellular kinases of SH-SY5Y cells (Homo sapiens, UniProt P27448) (P27448 whole entry): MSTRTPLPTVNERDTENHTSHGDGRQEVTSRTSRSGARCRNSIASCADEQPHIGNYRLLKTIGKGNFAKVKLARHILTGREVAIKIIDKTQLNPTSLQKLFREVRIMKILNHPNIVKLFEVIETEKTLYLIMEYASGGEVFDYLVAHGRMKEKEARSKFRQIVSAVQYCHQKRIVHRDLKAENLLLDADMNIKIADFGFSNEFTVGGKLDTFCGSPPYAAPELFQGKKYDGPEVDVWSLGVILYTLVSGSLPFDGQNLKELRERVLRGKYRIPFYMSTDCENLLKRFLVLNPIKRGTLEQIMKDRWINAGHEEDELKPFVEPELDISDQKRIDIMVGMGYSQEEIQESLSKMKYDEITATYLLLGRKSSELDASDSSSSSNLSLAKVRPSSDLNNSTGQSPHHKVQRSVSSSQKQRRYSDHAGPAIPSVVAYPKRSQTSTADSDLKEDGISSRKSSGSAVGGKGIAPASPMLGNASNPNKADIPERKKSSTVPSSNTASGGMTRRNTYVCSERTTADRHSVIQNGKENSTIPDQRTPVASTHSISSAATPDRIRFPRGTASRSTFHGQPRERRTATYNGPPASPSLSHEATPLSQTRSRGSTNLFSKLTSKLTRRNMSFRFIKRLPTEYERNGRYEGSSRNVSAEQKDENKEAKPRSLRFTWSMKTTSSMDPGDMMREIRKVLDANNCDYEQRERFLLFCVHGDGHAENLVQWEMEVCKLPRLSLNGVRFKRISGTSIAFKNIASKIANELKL
T8 sequence (P43403 whole entry): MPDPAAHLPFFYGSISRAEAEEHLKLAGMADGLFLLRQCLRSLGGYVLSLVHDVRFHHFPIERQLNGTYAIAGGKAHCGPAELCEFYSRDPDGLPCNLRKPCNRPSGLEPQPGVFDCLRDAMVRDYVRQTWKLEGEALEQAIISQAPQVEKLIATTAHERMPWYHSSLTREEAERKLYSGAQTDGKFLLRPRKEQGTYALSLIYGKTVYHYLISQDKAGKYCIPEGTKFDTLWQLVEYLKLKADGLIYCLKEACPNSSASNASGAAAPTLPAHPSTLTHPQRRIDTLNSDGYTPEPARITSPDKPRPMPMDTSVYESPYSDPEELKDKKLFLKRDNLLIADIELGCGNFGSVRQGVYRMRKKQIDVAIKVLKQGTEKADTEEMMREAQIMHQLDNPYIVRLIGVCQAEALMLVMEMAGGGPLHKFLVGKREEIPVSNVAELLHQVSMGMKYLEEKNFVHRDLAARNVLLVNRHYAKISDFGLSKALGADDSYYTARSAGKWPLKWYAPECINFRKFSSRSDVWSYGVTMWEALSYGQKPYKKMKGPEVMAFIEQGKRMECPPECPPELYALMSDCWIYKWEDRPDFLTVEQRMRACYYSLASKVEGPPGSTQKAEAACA
T3 sequence (Q86UX6 whole entry): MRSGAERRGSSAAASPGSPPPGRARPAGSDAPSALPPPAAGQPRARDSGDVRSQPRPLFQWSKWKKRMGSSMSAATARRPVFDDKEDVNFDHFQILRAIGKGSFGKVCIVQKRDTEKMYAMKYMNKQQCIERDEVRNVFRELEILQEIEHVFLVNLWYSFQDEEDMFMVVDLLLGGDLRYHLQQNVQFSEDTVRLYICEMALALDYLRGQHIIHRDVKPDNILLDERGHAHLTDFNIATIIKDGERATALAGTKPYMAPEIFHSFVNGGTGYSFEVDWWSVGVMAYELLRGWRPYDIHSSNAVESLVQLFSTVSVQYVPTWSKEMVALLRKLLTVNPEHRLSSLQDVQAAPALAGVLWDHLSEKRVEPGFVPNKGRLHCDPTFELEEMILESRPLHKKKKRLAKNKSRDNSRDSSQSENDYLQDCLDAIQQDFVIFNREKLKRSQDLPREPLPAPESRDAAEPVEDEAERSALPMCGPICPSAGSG
T7 sequence (Q96PY6 whole entry): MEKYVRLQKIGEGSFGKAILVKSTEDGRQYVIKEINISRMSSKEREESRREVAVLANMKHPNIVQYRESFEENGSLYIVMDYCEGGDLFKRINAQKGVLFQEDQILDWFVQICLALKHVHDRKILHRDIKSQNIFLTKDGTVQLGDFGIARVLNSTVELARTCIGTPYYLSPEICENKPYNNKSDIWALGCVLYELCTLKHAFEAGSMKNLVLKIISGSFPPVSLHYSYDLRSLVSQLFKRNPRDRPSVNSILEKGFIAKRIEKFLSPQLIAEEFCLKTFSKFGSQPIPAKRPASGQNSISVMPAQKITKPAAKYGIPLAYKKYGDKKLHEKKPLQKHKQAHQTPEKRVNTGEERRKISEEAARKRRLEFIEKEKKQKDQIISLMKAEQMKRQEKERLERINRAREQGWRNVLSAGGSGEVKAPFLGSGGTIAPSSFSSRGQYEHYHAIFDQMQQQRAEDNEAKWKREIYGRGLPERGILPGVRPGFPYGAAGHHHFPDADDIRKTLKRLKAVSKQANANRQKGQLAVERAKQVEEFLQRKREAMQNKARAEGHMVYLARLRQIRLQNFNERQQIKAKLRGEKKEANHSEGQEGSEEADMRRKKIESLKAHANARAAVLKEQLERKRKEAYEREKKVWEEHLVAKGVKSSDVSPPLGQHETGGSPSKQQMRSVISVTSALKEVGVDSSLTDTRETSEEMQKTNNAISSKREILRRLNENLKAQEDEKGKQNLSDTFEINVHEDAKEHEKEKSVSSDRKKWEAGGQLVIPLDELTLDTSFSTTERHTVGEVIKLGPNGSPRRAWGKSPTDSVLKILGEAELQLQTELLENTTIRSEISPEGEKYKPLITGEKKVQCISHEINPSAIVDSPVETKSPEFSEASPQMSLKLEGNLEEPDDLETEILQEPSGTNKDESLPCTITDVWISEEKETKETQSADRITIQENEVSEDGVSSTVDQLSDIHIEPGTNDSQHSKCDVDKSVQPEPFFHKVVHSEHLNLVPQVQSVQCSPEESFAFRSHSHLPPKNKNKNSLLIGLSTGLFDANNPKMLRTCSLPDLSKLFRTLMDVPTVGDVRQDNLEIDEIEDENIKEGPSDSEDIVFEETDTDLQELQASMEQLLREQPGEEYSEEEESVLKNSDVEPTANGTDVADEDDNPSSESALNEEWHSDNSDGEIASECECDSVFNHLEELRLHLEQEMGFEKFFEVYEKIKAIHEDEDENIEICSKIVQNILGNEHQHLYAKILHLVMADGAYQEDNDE
T2 sequence (Q15831 whole entry): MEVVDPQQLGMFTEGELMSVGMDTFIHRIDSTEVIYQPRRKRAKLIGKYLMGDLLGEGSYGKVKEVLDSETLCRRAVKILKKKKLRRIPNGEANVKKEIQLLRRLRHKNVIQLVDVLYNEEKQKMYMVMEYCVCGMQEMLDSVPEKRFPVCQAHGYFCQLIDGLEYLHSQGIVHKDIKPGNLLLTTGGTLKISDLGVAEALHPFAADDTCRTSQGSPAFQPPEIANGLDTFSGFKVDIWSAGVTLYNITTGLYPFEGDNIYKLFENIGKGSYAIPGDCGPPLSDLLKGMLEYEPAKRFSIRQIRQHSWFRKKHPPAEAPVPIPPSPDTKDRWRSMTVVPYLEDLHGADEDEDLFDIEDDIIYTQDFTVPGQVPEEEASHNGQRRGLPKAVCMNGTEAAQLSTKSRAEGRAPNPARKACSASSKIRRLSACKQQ

`Cc1cccc(-c2nc(Nc3ccc4ncsc4c3)c3ccccc3n2)n1` [NK140] was tested, and the “KiNativ in-cell binding, PI4K2B” value [1] was 11.9, the inhibition at 2 µM [2] was 58% and the inhibition at 2 µM [3] was -34.7%. It also gave an inhibition at 2 µM [4] of 1.3%, an inhibition at 2 µM ([5]; TLVIKEVSSEDIADMHSNLSNYHQYIVK) of -7% and an inhibition at 2 µM ([5]; VKELPTLKDMDFLNK) of 7.2%. For the same compound, the inhibition at 2 µM [6] was 18.5%, the inhibition at 2 µM ([7]; Labeling Site Protein Kinase Domain, ISMADVKFSFQCPGR, read-out: KiNativ in-cell binding, % Inhibition, ILK) was -31.8% and the “KiNativ in-cell binding, ILK” value ([7]; labeling site Lys1, peptide WQGNDIVVKVLK) was -23.6. The inhibition at 2 µM [8] was 15.6%, the “KiNativ in-cell binding, CSNK2A1” value [9] was 31.0 and the inhibition at 2 µM ([10]; Labeling Site Lys1, LAYNENDNTYYAMKVLSK, read-out: KiNativ in-cell binding, % Inhibition, CaMKK2) was -64%. The “KiNativ in-cell binding, CaMKK2” value ([10]; labeling site Lys2, peptide DIKPSNLLVGEDGHIK) was -31.8, the “KiNativ in-cell binding, SYK” value [11] was -121.1 and the inhibition at 2 µM ([11]; 2µM, SH-SY5Y cells, Labeling Site Activation Loop, AQTHGKWPVK, read-out: KiNativ in-cell binding, % Inhibition, SYK) was 0.443%. The “KiNativ in-cell binding, SYK” value ([11]; 2µM, SH-SY5Y cells, labeling site Activation Loop, peptide ISDFGLSKALR) was -15.0, the inhibition at 2 µM [12] was 30.4% and the inhibition at 2 µM ([13]; Labeling Site Activation Loop, MCDFGISGYLVDSVAKTMDAGCKPYMAPER, read-out: KiNativ in-cell binding, % Inhibition, MAP2K3) was 2.5%. The “KiNativ in-cell binding, MAP2K3” value ([13]; labeling site Lys1, peptide HAQSGTIMAVKR) was -144.3, the “KiNativ in-cell binding, MAP2K3” value ([13]; labeling site Lys2, peptide DVKPSNVLINK) was -182.7 and the inhibition at 2 µM [14] was -42.2%. It also gave an inhibition at 2 µM [15] of -13%, an inhibition at 2 µM [16] of -54.8% and an inhibition at 2 µM [17] of -3%. The “KiNativ in-cell binding, CDK6” value [18] was -30.7.
